From the NIST ThermoML archive (doi:10.1016/j.fluid.2008.10.003)
Numbers after ± are expanded uncertainties.

Test: isobaric coefficient of expansion; xn = mol fraction of the nth substance listed
Details: calorimetric method

CCCCCCO [hexan-1-ol] + CCCCCC
isobaric coefficient of expansion
Details | 5000 kPa | 10000 kPa | 15000 kPa | 20000 kPa | 25000 kPa | 30000 kPa | 35000 kPa | 40000 kPa | 45000 kPa | 50000 kPa
278.15 K, x1 = 0.0321 | 0.00122 ± 5.2e-05 1/K | 0.00117 ± 5e-05 1/K | 0.00114 ± 4.8e-05 1/K | 0.0011 ± 4.7e-05 1/K | 0.00107 ± 4.5e-05 1/K | 0.00104 ± 4.4e-05 1/K | 0.00101 ± 4.3e-05 1/K | 0.000982 ± 4.2e-05 1/K | 0.000957 ± 4.1e-05 1/K | 0.000935 ± 4e-05 1/K
278.15 K, x1 = 0.041 | 0.00122 ± 5.2e-05 1/K | 0.00118 ± 5e-05 1/K | 0.00114 ± 4.8e-05 1/K | 0.0011 ± 4.7e-05 1/K | 0.00107 ± 4.5e-05 1/K | 0.00104 ± 4.4e-05 1/K | 0.00101 ± 4.3e-05 1/K | 0.000977 ± 4.1e-05 1/K | 0.000958 ± 4.1e-05 1/K | 0.000937 ± 4e-05 1/K
278.15 K, x1 = 0.0946 | 0.00119 ± 5.1e-05 1/K | 0.00115 ± 4.9e-05 1/K | 0.00112 ± 4.7e-05 1/K | 0.00108 ± 4.6e-05 1/K | 0.00105 ± 4.5e-05 1/K | 0.00102 ± 4.3e-05 1/K | 0.000997 ± 4.2e-05 1/K | 0.000967 ± 4.1e-05 1/K | 0.000942 ± 4e-05 1/K | 0.000925 ± 3.9e-05 1/K
278.15 K, x1 = 0.1679 | 0.00116 ± 4.9e-05 1/K | 0.00112 ± 4.7e-05 1/K | 0.00108 ± 4.6e-05 1/K | 0.00105 ± 4.5e-05 1/K | 0.00102 ± 4.3e-05 1/K | 0.000996 ± 4.2e-05 1/K | 0.000974 ± 4.1e-05 1/K | 0.000947 ± 4e-05 1/K | 0.000923 ± 3.9e-05 1/K | 0.000907 ± 3.8e-05 1/K
278.15 K, x1 = 0.2153 | 0.00114 ± 4.8e-05 1/K | 0.0011 ± 4.7e-05 1/K | 0.00107 ± 4.5e-05 1/K | 0.00103 ± 4.4e-05 1/K | 0.00101 ± 4.3e-05 1/K | 0.000979 ± 4.2e-05 1/K | 0.000958 ± 4.1e-05 1/K | 0.000928 ± 3.9e-05 1/K | 0.000909 ± 3.9e-05 1/K | 0.000892 ± 3.8e-05 1/K
278.15 K, x1 = 0.3016 | 0.0011 ± 4.7e-05 1/K | 0.00106 ± 4.5e-05 1/K | 0.00103 ± 4.4e-05 1/K | 0.000999 ± 4.2e-05 1/K | 0.000978 ± 4.1e-05 1/K | 0.000953 ± 4e-05 1/K | 0.000932 ± 4e-05 1/K | 0.000911 ± 3.9e-05 1/K | 0.000887 ± 3.8e-05 1/K | 0.000868 ± 3.7e-05 1/K
278.15 K, x1 = 0.4075 | 0.00105 ± 4.5e-05 1/K | 0.00102 ± 4.3e-05 1/K | 0.000995 ± 4.2e-05 1/K | 0.000967 ± 4.1e-05 1/K | 0.000946 ± 4e-05 1/K | 0.000921 ± 3.9e-05 1/K | 0.000903 ± 3.8e-05 1/K | 0.000877 ± 3.7e-05 1/K | 0.000859 ± 3.6e-05 1/K | 0.000844 ± 3.6e-05 1/K
278.15 K, x1 = 0.503 | 0.00101 ± 4.3e-05 1/K | 0.000989 ± 4.2e-05 1/K | 0.000961 ± 4.1e-05 1/K | 0.00094 ± 4e-05 1/K | 0.000917 ± 3.9e-05 1/K | 0.000893 ± 3.8e-05 1/K | 0.000876 ± 3.7e-05 1/K | 0.000851 ± 3.6e-05 1/K | 0.000835 ± 3.5e-05 1/K | 0.00082 ± 3.5e-05 1/K
278.15 K, x1 = 0.594 | 0.000978 ± 4.1e-05 1/K | 0.000951 ± 4e-05 1/K | 0.000932 ± 4e-05 1/K | 0.000902 ± 3.8e-05 1/K | 0.000887 ± 3.8e-05 1/K | 0.000864 ± 3.7e-05 1/K | 0.00085 ± 3.6e-05 1/K | 0.000831 ± 3.5e-05 1/K | 0.000804 ± 3.4e-05 1/K | 0.0008 ± 3.4e-05 1/K
278.15 K, x1 = 0.6827 | 0.000937 ± 4e-05 1/K | 0.000916 ± 3.9e-05 1/K | 0.000897 ± 3.8e-05 1/K | 0.000874 ± 3.7e-05 1/K | 0.000857 ± 3.6e-05 1/K | 0.00084 ± 3.6e-05 1/K | 0.000824 ± 3.5e-05 1/K | 0.000804 ± 3.4e-05 1/K | 0.000791 ± 3.4e-05 1/K | 0.000775 ± 3.3e-05 1/K
278.15 K, x1 = 0.8013 | 0.000892 ± 3.8e-05 1/K | 0.000865 ± 3.7e-05 1/K | 0.000857 ± 3.6e-05 1/K | 0.000834 ± 3.5e-05 1/K | 0.000819 ± 3.5e-05 1/K | 0.000806 ± 3.4e-05 1/K | 0.000784 ± 3.3e-05 1/K | 0.000769 ± 3.3e-05 1/K | 0.000756 ± 3.2e-05 1/K | 0.000745 ± 3.2e-05 1/K
278.15 K, x1 = 0.8934 | 0.00085 ± 3.6e-05 1/K | 0.000837 ± 3.6e-05 1/K | 0.000817 ± 3.5e-05 1/K | 0.000803 ± 3.4e-05 1/K | 0.000789 ± 3.3e-05 1/K | 0.000775 ± 3.3e-05 1/K | 0.000756 ± 3.2e-05 1/K | 0.000751 ± 3.2e-05 1/K | 0.000733 ± 3.1e-05 1/K | 0.000723 ± 3.1e-05 1/K
278.15 K, x1 = 1 | 0.000821 ± 3.5e-05 1/K | 0.0008 ± 3.4e-05 1/K | 0.000788 ± 3.3e-05 1/K | 0.000778 ± 3.3e-05 1/K | 0.00076 ± 3.2e-05 1/K | 0.000748 ± 3.2e-05 1/K | 0.000733 ± 3.1e-05 1/K | 0.000723 ± 3.1e-05 1/K | 0.000716 ± 3e-05 1/K | 0.000708 ± 3e-05 1/K
298.15 K, x1 = 0.0321 | 0.0013 ± 5.5e-05 1/K | 0.00124 ± 5.3e-05 1/K | 0.0012 ± 5.1e-05 1/K | 0.00115 ± 4.9e-05 1/K | 0.00111 ± 4.7e-05 1/K | 0.00107 ± 4.5e-05 1/K | 0.00104 ± 4.4e-05 1/K | 0.00101 ± 4.3e-05 1/K | 0.00098 ± 4.2e-05 1/K | 0.000951 ± 4e-05 1/K
298.15 K, x1 = 0.041 | 0.0013 ± 5.5e-05 1/K | 0.00124 ± 5.3e-05 1/K | 0.0012 ± 5.1e-05 1/K | 0.00115 ± 4.9e-05 1/K | 0.00111 ± 4.7e-05 1/K | 0.00108 ± 4.6e-05 1/K | 0.00104 ± 4.4e-05 1/K | 0.00101 ± 4.3e-05 1/K | 0.000985 ± 4.2e-05 1/K | 0.000959 ± 4.1e-05 1/K
298.15 K, x1 = 0.0946 | 0.00127 ± 5.4e-05 1/K | 0.00122 ± 5.2e-05 1/K | 0.00118 ± 5e-05 1/K | 0.00113 ± 4.8e-05 1/K | 0.0011 ± 4.6e-05 1/K | 0.00106 ± 4.5e-05 1/K | 0.00103 ± 4.4e-05 1/K | 0.000999 ± 4.2e-05 1/K | 0.000969 ± 4.1e-05 1/K | 0.000946 ± 4e-05 1/K
298.15 K, x1 = 0.1679 | 0.00124 ± 5.2e-05 1/K | 0.00119 ± 5e-05 1/K | 0.00115 ± 4.9e-05 1/K | 0.0011 ± 4.7e-05 1/K | 0.00107 ± 4.5e-05 1/K | 0.00104 ± 4.4e-05 1/K | 0.00101 ± 4.3e-05 1/K | 0.000977 ± 4.1e-05 1/K | 0.00095 ± 4e-05 1/K | 0.000926 ± 3.9e-05 1/K
298.15 K, x1 = 0.2153 | 0.00121 ± 5.1e-05 1/K | 0.00116 ± 4.9e-05 1/K | 0.00112 ± 4.8e-05 1/K | 0.00108 ± 4.6e-05 1/K | 0.00105 ± 4.5e-05 1/K | 0.00102 ± 4.3e-05 1/K | 0.000988 ± 4.2e-05 1/K | 0.000962 ± 4.1e-05 1/K | 0.000936 ± 4e-05 1/K | 0.000913 ± 3.9e-05 1/K
298.15 K, x1 = 0.3016 | 0.00117 ± 4.9e-05 1/K | 0.00112 ± 4.8e-05 1/K | 0.00109 ± 4.6e-05 1/K | 0.00105 ± 4.4e-05 1/K | 0.00101 ± 4.3e-05 1/K | 0.000984 ± 4.2e-05 1/K | 0.000958 ± 4.1e-05 1/K | 0.000935 ± 4e-05 1/K | 0.000908 ± 3.9e-05 1/K | 0.000883 ± 3.7e-05 1/K
298.15 K, x1 = 0.4075 | 0.00112 ± 4.8e-05 1/K | 0.00108 ± 4.6e-05 1/K | 0.00105 ± 4.5e-05 1/K | 0.00102 ± 4.3e-05 1/K | 0.000986 ± 4.2e-05 1/K | 0.000957 ± 4.1e-05 1/K | 0.00093 ± 3.9e-05 1/K | 0.000912 ± 3.9e-05 1/K | 0.000888 ± 3.8e-05 1/K | 0.000868 ± 3.7e-05 1/K
298.15 K, x1 = 0.503 | 0.00108 ± 4.6e-05 1/K | 0.00104 ± 4.4e-05 1/K | 0.00101 ± 4.3e-05 1/K | 0.000982 ± 4.2e-05 1/K | 0.000952 ± 4e-05 1/K | 0.000928 ± 3.9e-05 1/K | 0.000904 ± 3.8e-05 1/K | 0.000879 ± 3.7e-05 1/K | 0.000864 ± 3.7e-05 1/K | 0.000844 ± 3.6e-05 1/K
298.15 K, x1 = 0.594 | 0.00103 ± 4.4e-05 1/K | 0.001 ± 4.2e-05 1/K | 0.000975 ± 4.1e-05 1/K | 0.000944 ± 4e-05 1/K | 0.00092 ± 3.9e-05 1/K | 0.000897 ± 3.8e-05 1/K | 0.000873 ± 3.7e-05 1/K | 0.000856 ± 3.6e-05 1/K | 0.000836 ± 3.5e-05 1/K | 0.000819 ± 3.5e-05 1/K
298.15 K, x1 = 0.6827 | 0.000993 ± 4.2e-05 1/K | 0.000965 ± 4.1e-05 1/K | 0.000939 ± 4e-05 1/K | 0.000913 ± 3.9e-05 1/K | 0.00089 ± 3.8e-05 1/K | 0.000868 ± 3.7e-05 1/K | 0.000846 ± 3.6e-05 1/K | 0.000827 ± 3.5e-05 1/K | 0.000812 ± 3.4e-05 1/K | 0.000794 ± 3.4e-05 1/K
298.15 K, x1 = 0.8013 | 0.000938 ± 4e-05 1/K | 0.000913 ± 3.9e-05 1/K | 0.00089 ± 3.8e-05 1/K | 0.000868 ± 3.7e-05 1/K | 0.000848 ± 3.6e-05 1/K | 0.00083 ± 3.5e-05 1/K | 0.000809 ± 3.4e-05 1/K | 0.000792 ± 3.4e-05 1/K | 0.000778 ± 3.3e-05 1/K | 0.000763 ± 3.2e-05 1/K
298.15 K, x1 = 0.8934 | 0.000896 ± 3.8e-05 1/K | 0.000874 ± 3.7e-05 1/K | 0.000855 ± 3.6e-05 1/K | 0.000835 ± 3.5e-05 1/K | 0.000816 ± 3.5e-05 1/K | 0.000797 ± 3.4e-05 1/K | 0.000781 ± 3.3e-05 1/K | 0.000763 ± 3.2e-05 1/K | 0.000751 ± 3.2e-05 1/K | 0.000739 ± 3.1e-05 1/K
298.15 K, x1 = 1 | 0.00085 ± 3.6e-05 1/K | 0.000832 ± 3.5e-05 1/K | 0.000812 ± 3.4e-05 1/K | 0.000796 ± 3.4e-05 1/K | 0.00078 ± 3.3e-05 1/K | 0.000764 ± 3.2e-05 1/K | 0.000749 ± 3.2e-05 1/K | 0.000734 ± 3.1e-05 1/K | 0.000724 ± 3.1e-05 1/K | 0.000712 ± 3e-05 1/K
